Data from the SangsterLogP compilation.

Test: method code SF, from Furst, W.; Becher, M. (1990). Homologues of 2-acetamido-4-nitropropoxybenzene (Falimint). I. Preparation, physicochemical and organoleptic properties. Pharmazie, 45(12)934-935.

Row | SMILES | logP
1 | CCCCOc1ccc([N+](=O)[O-])cc1NC(C)=O | 2.26
2 | COc1ccc([N+](=O)[O-])cc1NC(C)=O | 1.6
3 | CCCOc1ccc([N+](=O)[O-])cc1NC(C)=O | 1.6
4 | CCCCCC(=O)Nc1cc([N+](=O)[O-])ccc1OCCC | 2.78
5 | CCCOc1ccc([N+](=O)[O-])cc1NC(=O)CC | 1.93
6 | CCCOc1ccc([N+](=O)[O-])cc1NC(=O)CCC | 2.4
7 | CCOc1ccc([N+](=O)[O-])cc1NC(=O)CC | 1.85

More lines, now with the values ahead:

Row | logP | SMILES
8 | 3.14 | CCCCCCCC(=O)Nc1cc([N+](=O)[O-])ccc1OCCC
9 | 2.67 | CCCCCOc1ccc([N+](=O)[O-])cc1NC(C)=O
10 | 2.91 | CCCCCCOc1ccc([N+](=O)[O-])cc1NC(C)=O
11 | 3.65 | CCCCCCCCCCCCOc1ccc([N+](=O)[O-])cc1NC(C)=O
12 | 3.48 | CCCCCCCCCCCC(=O)Nc1cc([N+](=O)[O-])ccc1OCCC
13 | 3.18 | CCCCCCCCOc1ccc([N+](=O)[O-])cc1NC(C)=O
14 | 3.3 | CCCCCCCCCC(=O)Nc1cc([N+](=O)[O-])ccc1OCCC
